Non-standard residues stand in square brackets, D forms with d. pGlu = O=C1CC[C@@H](C(=O)O)N1

Assay type in all cases: cell-based, human
Experiment [1] relates to gluten-reactive T cells. Briefly: 96-well plate whole blood cytokine release, IFNγ by MAGPIX multiplex bead assay. The settings on record: for Percent of maximal response to individual gluten peptides, IFNg: after oral gluten challenge; for IFNγ WB MAGPIX % max Mean: n = 8, blood after oral gluten challenge, individual peptides 5 μM (Peptide 2* of P14, Pepscan: 10 μg/mL (5.45 μM)).

Experiment [2] deals with gluten-reactive T cells. Briefly: 96-well plate whole blood cytokine release, IP-10 by MAGPIX multiplex bead assay. To be noted: for Percent of maximal response to individual gluten peptides, IP-10: after oral gluten challenge; for IP-10 WB MAGPIX % max Mean: n = 10, blood after oral gluten challenge, individual peptides 5 μM (Peptide 2* of P14, Pepscan: 10 μg/mL (5.45 μM)).

Experiment [3] concerns gluten-reactive T cells. Briefly: Cytokine release assays taken together (IFNγ ELISpot, whole blood IFNγ and IP-10, in-tube IFNγ ELISA). The settings on record: for cytokine release / immunogenicity of individual peptide: HLA-DQ2.5+ celiac disease subjects after gluten challenge. A digest of the protocol: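 Whole blood with peptides (P3 0.05-50 μg/mL; P13/P14 0.025-25 μM; […]), 24 h, 37 °C; plasma IFNγ/IP-10 by multiplex beads. Tube assay: 1 mL blood with P3 or CEF, 24 h, plasma IFNγ ELISA; elevated if >7.2 pg/mL above medium tube and SI >1.25. ELISpot overnight on fresh PBMC.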
(In general: ELISA stands for enzyme-linked immunosorbent assay.)

Where [4] appears, read: blood collected after oral gluten challenge.

Consider “(pE)QPPFSEQEQPVLPQ-amide (N-terminal pyroglutamate; C-terminal amide) [Peptide 13]”, for which the “Percent of maximal response to individual gluten peptides, IFNg” value (from here on “Percent of maximal response … IFNg”) in the experiment with gluten-reactive T cells [1] (Subject 2, Max. 116 pg/mL) is recorded as 47 % of max; with gluten-reactive T cells [1] (Subject 3, Max. 799 pg/mL), 3 % of max; in the experiment with gluten-reactive T cells [1] (Subject 4, Max. 136 pg/mL) it was 0 % of max; in the experiment on gluten-reactive T cells [1] (Subject 6, Max. 72 pg/mL), 5 % of max; in the experiment with gluten-reactive T cells [1] (Subject 7, Max. 17 pg/mL) it was 1 % of max; in the experiment on gluten-reactive T cells [1] (Subject 8, Max. 47 pg/mL), 0 % of max. Moreover, the “Percent of maximal response … IFNg” value in the experiment on gluten-reactive T cells [1] (Subject 9, Max. 67 pg/mL) is 0 % of max; in the experiment on gluten-reactive T cells [1] (Subject 10, Max. 229 pg/mL), 0 % of max. Besides, the “IFNγ WB MAGPIX % max Mean” value with gluten-reactive T cells [1] was found to be 7 % max. Also, the “Percent of maximal response to individual gluten peptides, IP-10” value (shortened to “Percent of maximal response … IP-10”) is on record as 0 % of max in the experiment with gluten-reactive T cells [2] (Subject 1, Max. 2331 pg/mL); 16 % of max with gluten-reactive T cells [2] (Subject 2, Max. 3646 pg/mL); 70 % of max in the experiment with gluten-reactive T cells [2] (Subject 3, Max. 9492 pg/mL); 0 % of max with gluten-reactive T cells [2] (Subject 4, Max. 9463 pg/mL); 6 % of max with gluten-reactive T cells [2] (Subject 5, Max. 9336 pg/mL); 5 % of max in the experiment with gluten-reactive T cells [2] (Subject 6, Max. 5863 pg/mL). In addition, the “Percent of maximal response … IP-10” value with gluten-reactive T cells [2] (Subject 7, Max. 2330 pg/mL) was 0 % of max; in the experiment on gluten-reactive T cells [2] (Subject 8, Max. 4019 pg/mL), 0 % of max; in the experiment with gluten-reactive T cells [2] (Subject 9, Max. 8349 pg/mL), 0 % of max; with gluten-reactive T cells [2] (Subject 10, Max. 8922 pg/mL), 0 % of max. Further, the “IP-10 WB MAGPIX % max Mean” value in the experiment with gluten-reactive T cells [2] worked out at 10 % max. The “cytokine release / immunogenicity of individual peptide” value in the experiment on gluten-reactive T cells [3] is reported as “weak or not distinguishable from medium alone”.
“(pE)SGEGSFQPSQENPQ-amide ([pGlu]SGEGSFQPSQENPQ-NH2; SMILES NC(=O)CC[C@H](NC(=O)[C@@H]1CCCN1C(=O)[C@H](CC(N)=O)NC(=O)[C@H](CCC(=O)O)NC(=O)[C@H](CCC(N)=O)NC(=O)[C@H](CO)NC(=O)[C@@H]1CCCN1C(=O)[C@H](CCC(N)=O)NC(=O)[C@H](Cc1ccccc1)NC(=O)[C@H](CO)NC(=O)CNC(=O)[C@H](CCC(=O)O)NC(=O)CNC(=O)[C@H](CO)NC(=O)[C@@H]1CCC(=O)N1)C(N)=O) [Peptide 9]”: the “Percent of maximal response … IFNg” value in the experiment with gluten-reactive T cells [1] (Subject 2, Max. 116 pg/mL) is 19 % of max; with gluten-reactive T cells [1] (Subject 3, Max. 799 pg/mL) it was 0 % of max; with gluten-reactive T cells [1] (Subject 4, Max. 136 pg/mL), 0 % of max; with gluten-reactive T cells [1] (Subject 6, Max. 72 pg/mL) it was 0 % of max; in the experiment with gluten-reactive T cells [1] (Subject 7, Max. 17 pg/mL), 0 % of max; with gluten-reactive T cells [1] (Subject 8, Max. 47 pg/mL), 0 % of max. Besides, the “Percent of maximal response … IFNg” value in the experiment on gluten-reactive T cells [1] (Subject 9, Max. 67 pg/mL) is listed as 0 % of max; in the experiment on gluten-reactive T cells [1] (Subject 10, Max. 229 pg/mL), 0 % of max. In the experiment with gluten-reactive T cells [1], the “IFNγ WB MAGPIX % max Mean” value was found to be 2 % max. Also, the “Percent of maximal response … IP-10” value is on record as 0 % of max in the experiment on gluten-reactive T cells [2] (Subject 1, Max. 2331 pg/mL); 0 % of max with gluten-reactive T cells [2] (Subject 2, Max. 3646 pg/mL); 0 % of max in the experiment on gluten-reactive T cells [2] (Subject 3, Max. 9492 pg/mL); 0 % of max in the experiment with gluten-reactive T cells [2] (Subject 4, Max. 9463 pg/mL); 0 % of max in the experiment with gluten-reactive T cells [2] (Subject 5, Max. 9336 pg/mL); 0 % of max with gluten-reactive T cells [2] (Subject 6, Max. 5863 pg/mL). For the same substance, the “Percent of maximal response … IP-10” value is reported as 0 % of max in the experiment with gluten-reactive T cells [2] (Subject 7, Max. 2330 pg/mL); 0 % of max in the experiment on gluten-reactive T cells [2] (Subject 8, Max. 4019 pg/mL); 0 % of max in the experiment on gluten-reactive T cells [2] (Subject 9, Max. 8349 pg/mL); 0 % of max with gluten-reactive T cells [2] (Subject 10, Max. 8922 pg/mL). For the same substance, the “IP-10 WB MAGPIX % max Mean” value in the experiment on gluten-reactive T cells [2] is 0 % max. Also, in the experiment with gluten-reactive T cells [3], the “cytokine release / immunogenicity of individual peptide” value is “weak or not distinguishable from medium alone”.
For the substance “(pE)LQPFPQPELPYPQPQ-amide ([pGlu]LQPFPQPELPYPQPQ-NH2; SMILES CC(C)C[C@H](NC(=O)[C@@H]1CCC(=O)N1)C(=O)N[C@@H](CCC(N)=O)C(=O)N1CCC[C@H]1C(=O)N[C@@H](Cc1ccccc1)C(=O)N1CCC[C@H]1C(=O)N[C@@H](CCC(N)=O)C(=O)N1CCC[C@H]1C(=O)N[C@@H](CCC(=O)O)C(=O)N[C@@H](CC(C)C)C(=O)N1CCC[C@H]1C(=O)N[C@@H](Cc1ccc(O)cc1)C(=O)N1CCC[C@H]1C(=O)N[C@@H](CCC(N)=O)C(=O)N1CCC[C@H]1C(=O)N[C@@H](CCC(N)=O)C(N)=O) [Peptide 1]”, the “Percent of maximal response … IFNg” value with gluten-reactive T cells [1] (Subject 2, Max. 116 pg/mL) is recorded as 100 % of max; with gluten-reactive T cells [1] (Subject 3, Max. 799 pg/mL), 14 % of max; in the experiment with gluten-reactive T cells [1] (Subject 4, Max. 136 pg/mL), 26 % of max; in the experiment with gluten-reactive T cells [1] (Subject 6, Max. 72 pg/mL), 25 % of max; in the experiment with gluten-reactive T cells [1] (Subject 7, Max. 17 pg/mL), 43 % of max; in the experiment with gluten-reactive T cells [1] (Subject 8, Max. 47 pg/mL), 6 % of max. For the same substance, the “Percent of maximal response … IFNg” value in the experiment with gluten-reactive T cells [1] (Subject 9, Max. 67 pg/mL) is recorded as 43 % of max; in the experiment with gluten-reactive T cells [1] (Subject 10, Max. 229 pg/mL), 7 % of max. For the same substance, the “IFNγ WB MAGPIX % max Mean” value with gluten-reactive T cells [1] came to 33 % max. The “Percent of maximal response … IP-10” value is on record as 100 % of max with gluten-reactive T cells [2] (Subject 1, Max. 2331 pg/mL); 100 % of max in the experiment with gluten-reactive T cells [2] (Subject 2, Max. 3646 pg/mL); ≥ 100 % of max in the experiment with gluten-reactive T cells [2] (Subject 3, Max. 9492 pg/mL); 96 % of max with gluten-reactive T cells [2] (Subject 4, Max. 9463 pg/mL); 14 % of max with gluten-reactive T cells [2] (Subject 5, Max. 9336 pg/mL); 23 % of max in the experiment on gluten-reactive T cells [2] (Subject 6, Max. 5863 pg/mL). The “Percent of maximal response … IP-10” value is listed as 39 % of max in the experiment on gluten-reactive T cells [2] (Subject 7, Max. 2330 pg/mL); 3 % of max with gluten-reactive T cells [2] (Subject 8, Max. 4019 pg/mL); 75 % of max in the experiment on gluten-reactive T cells [2] (Subject 9, Max. 8349 pg/mL); 34 % of max with gluten-reactive T cells [2] (Subject 10, Max. 8922 pg/mL). Moreover, the “IP-10 WB MAGPIX % max Mean” value with gluten-reactive T cells [2] is listed as 58 % max. For the same substance, the “activity relative to Peptide 14 in the cytokine release assays” value in the experiment with gluten-reactive T cells [3] (setting [4]) is reported as “no more than two-thirds as active as Peptide 14”. The “rank of activity among individual gluten peptides” value in the experiment on gluten-reactive T cells [3] (setting [4]) is listed as “the most active of this group of related peptides”.
On to “(pE)PQPYPEQPQPFPQQ-amide ([pGlu]PQPYPEQPQPFPQQ-NH2; SMILES NC(=O)CC[C@H](NC(=O)[C@H](CCC(N)=O)NC(=O)[C@@H]1CCCN1C(=O)[C@H](Cc1ccccc1)NC(=O)[C@@H]1CCCN1C(=O)[C@H](CCC(N)=O)NC(=O)[C@@H]1CCCN1C(=O)[C@H](CCC(N)=O)NC(=O)[C@H](CCC(=O)O)NC(=O)[C@@H]1CCCN1C(=O)[C@H](Cc1ccc(O)cc1)NC(=O)[C@@H]1CCCN1C(=O)[C@H](CCC(N)=O)NC(=O)[C@@H]1CCCN1C(=O)[C@@H]1CCC(=O)N1)C(N)=O) [Peptide 8]”, for which the “Percent of maximal response … IFNg” value in the experiment with gluten-reactive T cells [1] (Subject 2, Max. 116 pg/mL) is reported as 35 % of max; with gluten-reactive T cells [1] (Subject 3, Max. 799 pg/mL) it was 24 % of max; with gluten-reactive T cells [1] (Subject 4, Max. 136 pg/mL), 39 % of max; in the experiment on gluten-reactive T cells [1] (Subject 6, Max. 72 pg/mL), 6 % of max; in the experiment with gluten-reactive T cells [1] (Subject 7, Max. 17 pg/mL) it was 0 % of max; with gluten-reactive T cells [1] (Subject 8, Max. 47 pg/mL), 42 % of max. Besides, the “Percent of maximal response … IFNg” value is reported as 5 % of max in the experiment on gluten-reactive T cells [1] (Subject 9, Max. 67 pg/mL) and 45 % of max in the experiment on gluten-reactive T cells [1] (Subject 10, Max. 229 pg/mL). Also, the “IFNγ WB MAGPIX % max Mean” value in the experiment on gluten-reactive T cells [1] was found to be 25 % max. The “Percent of maximal response … IP-10” value in the experiment on gluten-reactive T cells [2] (Subject 1, Max. 2331 pg/mL) is 0 % of max; in the experiment with gluten-reactive T cells [2] (Subject 2, Max. 3646 pg/mL) it was 5 % of max; in the experiment on gluten-reactive T cells [2] (Subject 3, Max. 9492 pg/mL) it was ≥ 100 % of max; in the experiment on gluten-reactive T cells [2] (Subject 4, Max. 9463 pg/mL), ≥ 100 % of max; in the experiment with gluten-reactive T cells [2] (Subject 5, Max. 9336 pg/mL) it was 45 % of max; in the experiment on gluten-reactive T cells [2] (Subject 6, Max. 5863 pg/mL), 2 % of max. For the same substance, the “Percent of maximal response … IP-10” value in the experiment with gluten-reactive T cells [2] (Subject 7, Max. 2330 pg/mL) is 0 % of max; in the experiment on gluten-reactive T cells [2] (Subject 8, Max. 4019 pg/mL), 39 % of max; with gluten-reactive T cells [2] (Subject 9, Max. 8349 pg/mL), 31 % of max; in the experiment with gluten-reactive T cells [2] (Subject 10, Max. 8922 pg/mL), 94 % of max. Moreover, the “IP-10 WB MAGPIX % max Mean” value with gluten-reactive T cells [2] was 42 % max. The “activity relative to Peptide 14 in the cytokine release assays” value with gluten-reactive T cells [3] (setting [4]) is reported as “approximately one-half to one-fifth as active as Peptide 14”.

Source of the values: US20170045513A1, “METHODS OF DIAGNOSING CELIAC DISEASE USING IP-10” (ImmusanT, Inc., priority 2014, published 2017).
